Experimental data: patent US8092825B2, “Glycan binding proteins as therapeutic targets for retinal disorders and treatment methods based thereon” (The University of Tennessee Research Foundation, priority 2007, dated 2012)
Entries after “also recorded” stand apart in the source; their conditions may differ.

How the values were obtained:
[1] = tested on: Müller cells; conditions: 1×10^−5 M, RPE-supported retinas; cited from earlier work
[2] = tested on: photoreceptor OS membrane assembly in RPE-deprived retinas; assay: In vitro assay of photoreceptor outer segment (OS) membrane assembly in RPE-deprived Xenopus laevis tadpole retinas; type: cell-based; conditions: for average OS organizational grade (mean±SEM; grade 4 = 100% organization): 5×10^−3 M sugar, three days in culture; for ability to promote OS assembly in the presence of the Müller cell inhibitor: with 1×10^−5 M α-AAA, IPTG at 5×10^−5 M
Source text: We have used various oligosaccharides at concentrations ranging over four orders of magnitude to evaluate the ability of these oligosaccharides to support OS membrane assembly in RPE-deprived retina, using a Xenopus laevis system that allows for convenient analysis of OS membrane formation in vitro. In the RPE-deprived cultures, the RPE continues to be present as a cluster of cells at the ora serrata; however throughout the posterior pole and periphery of the retina, the RPE layer has been removed from its normal position adjacent to the photoreceptors.
Intact retinas were removed from stage 33/34 Xenopus laevis tadpoles and placed into culture in Niu-Twitty medium for three days as described above. Using this paradigm, all OS material is elaborated while in culture. […]

[3] = tested on: photoreceptor OS membrane assembly in RPE-deprived retinas; conditions: previous studies (60, 61); cited from earlier work
[4] = tested on: putative retinal glycan receptor on Müller cells; assay: Binding of biotinylated-NA3 to embryonic retinas, anti-biotin immunostaining and confocal microscopy; set-up: species or system Xenopus laevis; conditions: biotinylated-NA3 alone
Source text: Embryonic Xenopus laevis retinas were exposed to two experimental conditions: (1) biotinylated-NA3; and (2) biotinylated-NA3 with a molar excess of IPTG as a competitive sugar, to eliminate non-specific interactions of NA3 with retinal proteins. After exposure to the sugars followed by immunostaining using a mouse anti-biotin primary antibody and a chicken anti-mouse secondary antibody coupled to Alexa fluor 594 using standard protocols, eyes were bisected and viewed using a confocal microscope.
2. Localization of the glycan receptor using biotinylated-NA3 probe. RPE-deprived retinas from stage 33/34 Xenopus laevis tadpoles are exposed to Niu-Twitty medium containing 10^−7 M biotinylated-NA3 for 3 hours, followed by fixation in 4% paraformaldehyde. Control retinas are incubated in NA3+10^−5 M IPTG to reveal non-specific binding of the NA3 ligand. Subsequent procedures are identical to those described above for immunohistochemical localization. In this instance, however, the following primary and secondary antibodies are utilized: anti-biotin, mouse IgG (Molecular Probes) as primary antibody; and anti-mouse chicken IgG labeled with Alexa Fluor 488 (Molecular Probes). To confirm the localization to a particular retinal cell type, sections are co-stained with antisera that are cell type-specific (e.g., directed against Müller cell- or photoreceptor-specific gene products).

[5] = tested on: xrds38 isoform of Xenopus peripherin2; assay: Antisense oligonucleotide knockdown in isolated Xenopus laevis eye rudiments; type: cell-based; conditions: steady-state level vs retinas with intact RPE
Source text: We have developed an assay system using intact isolated Xenopus laevis eye rudiments coupled with antisense oligonucleotides that is well suited to evaluating the functional role of specific gene products, e.g., in OS membrane assembly. As an example of the capability of this assay system, we generated a loss-of-function model for peripherin2, a genetically and phenotypically well-characterized gene (76-82). Photoreceptors of Xenopus laevis express three distinct isoforms of the peripherin2 gene; cones express xrds38 exclusively, whereas rods express […] xrds38 (83). For purposes of validation of the antisense assay system, our evaluation was directed to xrds38. Phosphorothioated oligonucleotides (two 20-base antisense oligonucleotides and one 20-base sense oligonucleotide) derived from the 5' end of the coding sequences of the xrds38 isoform of Xenopus peripherin2 were utilized. Additional controls included: retinas with an intact RPE, and retinas devoid of RPE with 5 mM exogenous lactose added to the medium. […] The percentage of retinal cells that had positive uptake of the FITC-conjugated oligonucleotide was determined by comparing the volume of bright to dark areas in optical sections obtained with the confocal microscope. […] The steady-state levels of each protein were compared to the levels detected in control retinas maintained with an intact RPE cell layer.

## NC(CCCC(=O)O)C(=O)O (stereo not drawn) [α-AAA, Alpha-aminoadipic acid]
[1]
  effect on Müller cell morphology and protein expression patterns: selective alterations
  effect on ability of photoreceptors to synthesize opsin: no affect
  effect on assembly of nascent OS membranes: interfere with the ability of these cells to properly assembly nascent OS membranes

## asialo, galactosylated, biantennary (NA2) oligosaccharide
[2]; RPE-deprived retinas
  concentration that optimally supports OS assembly (maximum effect): 0.005 µM

## O=C[C@@H](O)[C@@H](O)[C@H](O)[C@H](O)CO [mannose]
[2]; 5×10^−3 M (5 mM)
  support of OS assembly in the absence of RPE: does not favorably affect the folding of OS; also recorded: fails to support the proper assembly of OS
[2]; RPE-deprived retinas
  average OS organizational grade (mean±SEM; grade 4 = 100% organization): 0.52±0.22
[3]
  ability to let OS organize in the absence of the RPE (permissive / non-permissive sugars): fail to exert any organizational effect

## O=C[C@H](O)[C@@H](O)[C@@H](O)[C@H](O)CO [galactose]
[3]
  ability to let OS organize in the absence of the RPE (permissive / non-permissive sugars): permit OS to organize

## C[C@H](O)[C@@H](O)[C@@H](O)[C@H](O)C=O [fucose]
[3]
  ability to let OS organize in the absence of the RPE (permissive / non-permissive sugars): fail to exert any organizational effect

## CC(C)S[C@@H]1O[C@H](CO)[C@H](O)[C@H](O)[C@H]1O [IPTG, isopropyl beta-D-thiogalactopyranoside]
[2]; 5×10^−5 M IPTG with 3H-leucine for two days
  average grade of OS membranes assembled during exposure to the sugar (early part): about 2.88±0.37
[2]; RPE-deprived retinas
  concentration that optimally supports OS assembly (maximum effect): 50 µM
  fold lower concentration than lactose for comparable effect on OS assembly: 100 fold
  ability to promote OS assembly in the presence of the Müller cell inhibitor: severely diminished
[2]; RPE-deprived retinas, 5×10^−5 M IPTG
  average OS grade at maximum response: 2.61±0.37
[2]; two further days in non-supplemented medium after IPTG
  average grade of OS membranes assembled after removal of the sugar (later stage): 1.21±0.31

## asialo, galactosylated, triantennary (NA3) oligosaccharide
[2]; 5×10^−10M
  support of OS assembly in the absence of RPE: robust support of OS assembly
[2]; RPE-deprived retinas
  concentration that optimally supports OS assembly (maximum effect): 0.0005 µM
[4]
  binding to photoreceptors: did not bind to any portion of photoreceptors

## OC[C@H]1O[C@@H](O[C@H]2[C@H](O)[C@@H](O)C(O)O[C@@H]2CO)[C@H](O)[C@@H](O)[C@H]1O (some centres unmarked) [lactose]
[2]; 5×10^−3 M (5 mM)
  support of OS assembly in the absence of RPE: supports the proper formation of nascent OS; also recorded: OS assembly is supported
[2]; RPE-deprived retinas
  concentration that optimally supports OS assembly (maximum effect): 5000 µM
  average OS organizational grade (mean±SEM; grade 4 = 100% organization): 2.50±0.28
[2]; RPE-deprived retinas, 5×10^−3 M
  share of OS membranes highly organized: 50 to 75%
[5]
  opsin protein level relative to control: not significantly different from controls
  peripherin2 protein level relative to control: slightly elevated above control
[3]
  ability to let OS organize in the absence of the RPE (permissive / non-permissive sugars): permit OS to organize

B1: PEDF: pigment epithelium derived factor, RPE-secreted protein (protein, UniProt P36955 20-418, looked up)
Pigment epithelium-derived …: QNPASPPEEGSPDPDSTGALVEEEDPFFKVPVNKLAAAVSNFGYDLYRVRSSTSPTTNVLLSPLSVATALSALSLGAEQRTESIIHRALYYDLISSPDIHGTYKELLDTVTAPQKNLKSASRIVFEKKLRIKSSFVAPLEKSYGTRPRVLTGNPRLDLQEINNWVQAQMKGKLARSTKEIPDEISILLLGVAHFKGQWVTKFDSRKTSLEDFYLDEERTVRVPMMSDPKAVLRYGLDSDLSCKIAQLPLTGSMSIIFFLPLKVTQNLTLIEESLTSEFIHDIDRELKTVQAVLTVPKLKLSYEGEVTKSLQEMKLQSLFDSPDFSKITGKPIKLTQVEHRAGFEWNEDGAGTTPSPGLQPAHLTFPLDYHLNQPFIFVLRDTDTGALLFIGKILDPRGP
[2]; RPE-deprived retinas
  ability to promote OS assembly in the presence of the Müller cell inhibitor: able to support proper membrane folding
